Data on ten molecules can be found in paper PMC6345492, “Thioguanine-based DENV-2 NS2B/NS3 protease inhibitors: Virtual screening, synthesis, biological evaluation and molecular modelling” (PLoS ONE, 2019).

The target in test [1] is T1, DENV-2 NS2B/NS3pro (Dengue virus type 2, UniProt P14340).
T1 construct: pQE30.CF40.gly(T).NS3pro expression plasmid; 6x-His (N); glycine linker (gly(T)) joining CF40 to NS3pro (C); made in house; host or cells: Escherichia coli strain XL1-Blue
The test can be described thus: DENV-2 NS2B/NS3pro protease inhibition assay (fluorogenic Boc-GRR-MCA substrate). The test is classed as biochemical. To be noted: for IC50: 3 μM protease, 25 μM substrate. How it is done: The DENV-2 NS2B/NS3pro expression was carried out according to the established method by Yusof et al., (2000) with minor modifications according to published articles. The plasmid encoding the NS2B/NS3 protease sequence from DENV-2 was transformed into Escherichia coli strain XL1-Blue transformed with pQE30.CF40.gly(T).NS3pro expression plasmid were grown in LB medium containing 10 μg/ml ampicillin at 37°C until the OD600 reached 0.6. First, the cells were incubated at 37°C, 200 rpm until OD600 reached ~0.6. One ml of isopropyl-β-D-thiogalactopyranoside (0.5 mM in LB medium) was added to the bacterial cells for 2 hours to induce protein expression. Expression of the recombinant protein was induced by the addition of […] IPTG and the culture was incubated for 2 hours.
The cells were harvested by centrifugation at 8000 rpm (Sorvall RC-5B Refrigerated Superspeed centrifuge) for 15 minutes at […]. The cell pellets were thawed (1 g) and resuspended in lysis buffer (5 mL) followed by mixing them using vortex until milky. For purification, cells were lysed by sonication conducting (6 times 15-second pulse, duty cycle 10%, output control no 3) using Ultrasonic Cell Disruptor, Branson Sonifier 450, Germany. The lysate was incubated on ice for 1 hour and then centrifuged at 8000 rpm for 1 hour at 4°C. The soluble 6x-His-NS2B/NS3protease in its native form was filtered ([…]), batch-bound to 2 x 2 ml Ni^2+-NTA (nickel-nitrilotriacetic acid) resin (pre-equilibrated with column buffer) and incubated overnight at 4°C. The resin was cleaned up from the unbound fraction by centrifugation and the resin with bound protein was collected and loaded into columns (Bio-Rad; 1 x 3 cm). The gradient technique columns were washed extensively with 3 x 15 ml of wash buffer and further eluted with 10 ml of elution buffer for each column while being monitored using Bio-Rad Bradford protein assay. The purified protein was then analysed with 12% SDS-PAGE, pooled and stored at -80°C for further use in the dengue protease activity and inhibition studies. The dengue protease activity assay was developed as previously described with a slight modification. Briefly, the assay system comprised of 200 mM Tris-HCl (pH 8.5) buffer, DENV-2 NS2B/NS3pro and Boc-GRR-MCA as the substrate. Protease optimum assay was executed to ascertain maximum protease activity at constant concentration of the substrate (25 μM). The protease concentrations were varied within 0–10 μM. The 7-Amino-4-methylcoumarin (AMC) produced was measured as fluorescence intensity at λexcitation of 340 nm and λemission of 440 nm by using ELISA modulus microplate reader.
The compounds were also checked for its requirement to pass the pan assay interference compounds (PAINS) (http://cbligand.org/PAINS/) before tested for their inhibition activities against DENV-2 NS2B/NS3pro at a range of concentrations (0 to 300 μg/mL). […] The concentration of the protease being used was 3 μM initially incubated with the compound for 10 minutes at 37°C with 200 rpm of rotation. Subsequently, 25 μM of the substrate was added and the incubation was further prolonged for 60 minutes. The fluorescence intensity at 340/ 440 nm was measured as the AMC byproduct was released upon the peptide substrate cleavage by the protease. The experiments were triplicated and Panduratin A was used as the positive control.

The target in test [2] is T1, DENV-2 NS2B/NS3pro. On the set-up: method as in PMID 16621533. To be noted: competitive inhibition; cited from earlier work.
Where [3] appears, read: TG derivatives, Table 2, read-out: IC50.
Setting [4] is: six newly designed compounds, Table 3, read-out: IC50.

Like-named read-outs stand apart in the source and are kept apart here.

T1 sequence (P14340 1398-1437): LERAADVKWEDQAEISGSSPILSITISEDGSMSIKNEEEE
T1 sequence (P14340 1476-1653): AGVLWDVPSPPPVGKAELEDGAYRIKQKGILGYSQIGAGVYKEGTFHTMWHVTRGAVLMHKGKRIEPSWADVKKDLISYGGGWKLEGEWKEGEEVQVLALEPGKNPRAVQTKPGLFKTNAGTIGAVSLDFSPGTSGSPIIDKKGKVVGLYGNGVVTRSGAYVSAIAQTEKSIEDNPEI

Regarding `COc1cccc(S(=O)(=O)Nc2nc(S)c3nc[nH]c3n2)c1` [Compound 4], at DENV-2 NS2B/NS3pro [1] (setting [3]), the 50% inhibitory concentration (IC50) – broadly, the concentration that gives 50% inhibition – worked out at 68 µM. As to `COc1ccc(S(=O)(=O)Nc2nc(S)c3nc[nH]c3n2)cc1` [Compound 5], the half-maximal inhibitory concentration (IC50) at DENV-2 NS2B/NS3pro [1] (setting [3]) was 55 µM. On to `CCC(=O)Nc1nc(SC(=O)CC)c2nc[nH]c2n1` [Compound 16], for which the concentration for half-maximal inhibition (IC50) on DENV-2 NS2B/NS3pro [1] (setting [4]) turned out to be 97 µM. With `CC(C)C(=O)Nc1nc(SC(=O)C(C)C)c2nc[nH]c2n1` [Compound 17], on DENV-2 NS2B/NS3pro [1] (setting [4]), the IC50 turned out to be 80 µM.

Turning to `CCCCC(=O)Nc1nc(SC(=O)CCCC)c2nc[nH]c2n1` [Compound 18], on DENV-2 NS2B/NS3pro [1] (setting [4]), the half-maximal inhibitory concentration (IC50) was determined as 0.38 µM.

For `CCCCC(=O)Nc1nc(SCc2ccccc2)c2nc[nH]c2n1` [Compound 19], the IC50 on DENV-2 NS2B/NS3pro [1] (setting [4]) was 54 µM.

Turning to `CC(C)Cn1cnc2c(SCc3cccc4ccccc34)nc(N)nc21` [Compound 20], at DENV-2 NS2B/NS3pro [1] (setting [4]), the IC50 was 258 µM. `CCCCC(=O)Nc1nc(SCc2ccccc2)c2ncn(Cc3ccccc3)c2n1` [Compound 21]: on DENV-2 NS2B/NS3pro [1] (setting [4]), the IC50 came out at 16 µM.

On to `COc1cc(O)c(C(=O)[C@@H]2[C@H](CC=C(C)C)C(C)=CC[C@H]2c2ccccc2)c(O)c1` [Panduratin A, panduratin A, reference compound], for which the IC50 on DENV-2 NS2B/NS3pro [1] (NCI diversity set hits, read-out: Experimental IC50) is 56 µM. The Ki (commonly a measure of affinity in units of concentration, obtained from inhibition or displacement) on DENV-2 NS2B/NS3pro [2] was 25 µM. In the case of `Nc1nc2nc[nH]c2c(=S)[nH]1` [TG, thioguanine], the inhibition (in general, the relative decrease from the control value, in per cent) at 200 µg/mL against DENV-2 NS2B/NS3pro [1] stood at 56%. For the same molecule, on DENV-2 NS2B/NS3pro [1] (setting [3]), the concentration for half-maximal inhibition (IC50) amounted to 753 µM.
